Assays:
Spodoptera littoralis [1] = experiment: Antifeedant activity against Spodoptera littoralis assessed as antifeedant index at 100 ppm by binary choice bioassay; assay type: functional
Spodoptera littoralis [2] = experiment: Antifeedant activity against Spodoptera littoralis by binary choice bioassay; assay type: functional

SMILES | AFI (Spodoptera littoralis [1]) [%] | FI50 (Spodoptera littoralis [2]) [ppm]
CC(=O)OC[C@@]12C(=O)[C@H]3O[C@H](O)[C@](C[C@H](OC(C)=O)c4ccoc4)([C@@H]3C)[C@H]1CCC[C@]21CO1 [AUROPOLIN] | 17.8 | –
CC(=O)OC[C@@]12C(=O)[C@@H](OC(C)=O)[C@@H](C)[C@]3(C[C@@H](c4ccoc4)OC3=O)[C@H]1CCC[C@]21CO1 [CAPITATIN] | 31 | –
CC(=O)OC[C@@]12C(=O)[C@H]3OC(=O)[C@@](C[C@H](OC(C)=O)c4ccoc4)(C1CCC[C@]21CO1)[C@@H]3C (stereo partly specified) | 6.9 | 230
CC(=O)OC[C@@]12C(=O)[C@H]3O[C@H](OC(C)=O)[C@](C[C@H](OC(C)=O)c4ccoc4)([C@@H]3C)[C@H]1CCC[C@]21CO1 [ACETYL-AUROPOLIN] | 57.8 | 90
